Source: patent US5807832A, “Oral delivery of biologically active substances bound to vitamin B12” (Biotech Australia Pty Limited, priority 1988, dated 1998)

Key:
Format in all cases: in vivo
S. typhimurium = assay: Systemic S. typhimurium infection in mice: survival and clearance; conditions: for Elimination of systemic S. typhimurium infection / prevention of death (in words): 1 mg total dose; for Suvivors (day 10) Number / Suvivors (day 10) Percentage: total dose 1 mg as five doses 12 h apart from day 3, mice fed 1×10^6 S. typhimurium on day 0
[1] = test system: Mature C57B1/6J female mice; assay: Stimulation of ovulation in PMSG-primed mice (corpora haemorrhagica on the ovaries)
Protocol: Mature C57B1/6J female mice were treated in the following fashion: On day 0 all mice received a subcutaneous (s.'c) superovulating dose of pregnant mare serum gonadotraphin (PMSG) to stimulate the growth of ovarian follicles. After 48 hours mice received various doses of LHRH, Lys-6-LHRH or saline. On day 3 mice were sacrificed and examined for ovulation. Ovulation was assessed by examining for the presence of corpora haemorrhagica on the ovaries using a stereoscopic microscope at […].

C57B1/6J mice [2] = assay: Footpad assay for DTH (footpad swelling); conditions: oral 50 μg priming dose, challenge with 10 μg immunizing antigen in right foot, swelling after 24 h
Protocol: Feeding of these VB12-protein complexed was also capable of stimulating good cellular immunity (as measured by the footpad assay for DTH).
+ Footpad swelling was measured in mm using a microcaliper. All groups
received a 50 μg priming dose of antigen followed by challenge with 10
μg of the immunizing antigen in the right foot and 10 μg of
ovalbumen in the left footpad. Swelling was measured after 24 h.

C57B1/6J mice [3] = assay: Serum antibody response (ELISA titre) after oral feeding of antigen; conditions: two feedings of antigen (50 μg) on days 1 and 14, reciprocal of antiserum dilution giving ELISA reading 0.5, day 21, mean of 15 mice ±1 SD
Protocol: Female C57B1/6J mice (18-22 g) were obtained from the Animal Resources Centre (Perth, Western Australia). All mice received conjugate preparations in 0.5 ml of 0.1M carbonate/bicarbonate buffer pH9.5 using a specially prepared feeding needle. Mice were fed on days 0 and 14. On day 21 the mice were bled from the orbital plexus. Antibody titres of serum were determined by ELISA using alkaline phosphatase conjugated anti-mouse serum.
The possible potential for VB12 deliver protein molecules, covalently linked to it, from the intestine to the circulation was investigated. The immune response generated to this complex was compared to that generated by the protein fed alone or together with VB12, or to the protein injected intramuscularly.
* The reciprocal of the antiserum dilution that gave an ELISA reading of
0.5 afer 45min. at 37° C. on day 21 after initial feeding. Each
value represents the mean of 15 mice ±1 standard deviation. Mice
received two feedings of antigen (50 μg) on days 1 and 14. On day 21
mice were bled from the retro orbital plaxus and the antibody titres
measured by ELISA as described previously (RussellJones et al., 1984).
Each protein molecule was substituted with an average of 5 VB12 groups.

Substance | Elimination of systemic S. typhimurium infection / prevention of death (in words) (S. typhimurium; i.m. injection) | Suvivors (day 10) Number (S. typhimurium; i.m.) | Suvivors (day 10) Percentage (S. typhimurium; i.m.) [%] | Elimination of systemic S. typhimurium infection / prevention of death (in words) (S. typhimurium; oral) | Suvivors (day 10) Number (S. typhimurium; oral) | Suvivors (day 10) Percentage (S. typhimurium; oral) [%] | Number of mice ovulating ([1]; Table 2, PMSG 4 IU day 0, 50 μg iv day 2) | Number of mice ovulating ([1]; Table 2, PMSG 8 IU day 0, 50 μg iv day 2) | Number of mice ovulating ([1]; Table 3, PMSG 8 IU day 0, 50 μg/os day 2) | Number of mice ovulating ([1]; Table 4, PMSG 8 IU day 0, 6 μg/os day 2) | Number of mice ovulating ([1]; Table 4, PMSG 8 IU day 0, 12 μg/os day 2) | Number of mice ovulating ([1]; Table 4, PMSG 8 IU day 0, 25 μg/os day 2) | Number of mice ovulating ([1]; Table 4, PMSG 8 IU day 0, 50 μg/os day 2) | Footpad Response (footpad swelling) (C57B1/6J mice [2]) [mm] | Serum Antibody Response (C57B1/6J mice [3])
neomycin | could be saved | 2 | 100 | not able to eliminate systemic infection | 0 | 0 |  |  |  |  |  |  |  |  | 
lutenizing hormone releasing hormone [LHRH] |  |  |  |  |  |  | 1/3 | 1/4 | 1/5 | 0/5 | 0/5 | 1/5 | 1/5 |  | 
vitamin B12 [VB12] |  |  |  |  | 0 | 0 |  |  |  |  |  |  |  | 0 | < 4
